According to patent publication US20250326708A1, “LONG-ACTING SPLEEN-TARGETING CATIONIC LIPID COMPOUND COMPRISING BENZENE RING STRUCTURE, COMPOSITION COMPRISING SAME, AND USE THEREOF” (Beijing Youcarekechuang Pharmaceutical Technology Co., Ltd., priority 2024, published 2025):
Values joined by “and” are separate entries in the source; they are usually repeats but may differ in a detail not shown here. Identical values can stand only once.

How the values were obtained:
293T cells [1] = experiment: Cell viability assay (CCK-8) with LNP preparations of Fluc-mRNA; format: cell-based
Outline: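 293T cells seeded at 10,000/well and cultured overnight, then given LNPs (cationic lipid:DSPC:cholesterol:DMG-PEG2000 49:10:39.5:1.5) carrying 1.5 μg Fluc-mRNA. After 24 h, viability measured by CCK-8 with 1 h incubation.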

female BALB/C mice [2] = experiment: Expression of delivered mRNA in different organs of mice (organ imaging); format: in vivo
Experimental: LNP preparations containing 5 μg of Fluc-mRNA were subcutaneously injected into female BALB/C mice (4 to 6 weeks old, weighing 17 to 19 g). At specified time points after administration (6 h), the mice were intraperitoneally injected with fluorescent imaging substrates and allowed to move freely for 5 minutes. The average radiation intensity (corresponding to fluorescence intensity) of proteins expressed by the mRNA delivered by the LNP preparations in the mice in vivo was then detected using the IVIS Spectrum small-animal in vivo imaging system. After sampling, the mice were killed by cervical dislocation and dissected, and the internal organs: heart, liver, spleen, lung, kidney, and lymph of mice were accurately isolated. The average radiation intensity (corresponding to fluorescence intensity) of proteins expressed by the mRNA delivered by the LNP preparations in various organs of mice was then detected using the IVIS Spectrum small-animal in vivo imaging system.

293T cells [3] = experiment: Fluorescence detection of Fluc-mRNA (transfection efficiency) of LNP preparations; format: cell-based; details: Fluc-mRNA LNP
Outline: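 293T cells seeded at 10,000 per well in 96-well plates overnight, then dosed with LNPs (cationic lipid:DSPC:cholesterol:DMG-PEG2000 49:10:39.5:1.5 molar; total lipid:mRNA 15:1 w/w) carrying 0.3 μg Fluc-mRNA. After 24 h, luciferase kit reagents added and fluorescence intensity per well read by IVIS imaging.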

[4] = Particle size and polydispersity index (PDI) of lipid nanoparticles, dynamic light scattering; format: physicochemical; details: LNP preparation with the named cationic lipid; 90° scattering angle, 25° C
Outline: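 LNPs of cationic lipid:DSPC:cholesterol:DMG-PEG2000 (49:10:39.5:1.5 molar) encapsulating eGFP or Fluc mRNA at 15:1 lipid:mRNA weight ratio, made by ethanol injection into citrate buffer pH 4–5, sonication, and ultrafiltration into PBS. Size and PDI by DLS at 90° and 25° C after dilution in water, three measurements per sample.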

female BALB/C mice [5] = experiment: Distribution of delivered small nucleic acid drug (Cy5 fluorescently labeled Leqvio) in different organs of mice; format: in vivo
Experimental: LNP preparations containing 5 μg of Cy5 fluorescently labeled Leqvio were injected via the tail vein into female BALB/C mice (4 to 6 weeks old, weighing 17 to 19 g). At a specific time point after administration (4 h), the average radiation intensity (corresponding to fluorescence intensity) resulting from the Cy5 fluorescently labeled Leqvio delivered by the LNP preparations in the mice in vivo was detected using the IVIS Spectrum small-animal in vivo imaging system. After sampling, the mice were killed by cervical dislocation and dissected, and the internal organs: heart, liver, spleen, lung, kidney, and lymph of mice were accurately isolated. The average radiation intensity (corresponding to fluorescence intensity) resulting from Cy5 fluorescently labeled Leqvio delivered by the LNP preparations in various organs of mice was then detected using the IVIS Spectrum small-animal in vivo imaging system.

[6] = 6 hours after 5 μg Fluc-mRNA subcutaneously
[7] = 4 hours after 5 μg Cy5 fluorescently labeled Leqvio via tail vein

PDI [4]: 10.3%
Particle size [4]: 126 nm
Average radiation intensity of mouse organs: Heart (female BALB/C mice [5]; [7]): 0
Average radiation intensity of mouse organs: Kidney (female BALB/C mice [5]; [7]): 53243
Average radiation intensity of mouse organs: Liver (female BALB/C mice [5]; [7]): 33583
Average radiation intensity of mouse organs: Lung (female BALB/C mice [5]; [7]): 0
Average radiation intensity of mouse organs: Lymph (female BALB/C mice [5]; [7]): 0
Average radiation intensity of mouse organs: Spleen (female BALB/C mice [5]; [7]): 63583
Fluorescence intensity in the spleen, times that of SM-102 (female BALB/C mice [5]; Cy5 Leqvio, spleen, 4 h, vs SM-102): 51.19 times
Fluorescence intensity in the spleen, times that of YK-501 (female BALB/C mice [5]; Cy5 Leqvio, spleen, 4 h, vs YK-501): 11.91 times
Fluorescence intensity in the spleen, times that of YK-506 (female BALB/C mice [5]; Cy5 Leqvio, spleen, 4 h, vs YK-506): 2.85 times
Fluorescence intensity in the spleen, times that of direct administration (female BALB/C mice [5]; Cy5 Leqvio, spleen, 4 h, vs direct administration): 150.67 times
SMILES: CCCCCCCCCCCOC(=O)CCCN(CCCCCCC(=O)OCCC(CCCCCC)CCCCCC)CCNC(CO)(CO)CCc1ccc(CCCCCCCC)cc1 [YK-910, 3-hexylnonyl 7-((2-((1-hydroxy-2-(hydroxymethyl)-4-(4-octylphenyl)butan-2-yl)amino)ethyl) (4-oxo-4-(undecyloxy)butyl)amino) heptanoate]
Cell viability (293T cells [1]; LNP with 1.5 μg Fluc-mRNA, 24 hours, CCK-8): 94%
Cell viability higher than that of HHMA (293T cells [1]; difference vs HHMA): 17%
Cell viability higher than that of I-1 (293T cells [1]; difference vs I-1): 26%
Cell viability higher than that of Lipofectamine 3000 (293T cells [1]; difference vs Lipofectamine 3000): 63%
Cell viability higher than that of MC3 (293T cells [1]; difference vs MC3): 20%
Cell viability higher than that of SM-102 (293T cells [1]; difference vs SM-102): 12%
Cell viability higher than that of YK-501 (293T cells [1]; difference vs YK-501): 31%
Cytotoxicity lower than that of YK-902 (293T cells [1]; difference vs YK-902): 58%
Cell viability higher than that of YK-906 (293T cells [1]; difference vs YK-906): 31%
Cell viability higher than that of compound 7 (293T cells [1]; difference vs compound 7): 21%
Average radiation intensity of mouse organs: Heart (female BALB/C mice [2]; [6]): 0
Average radiation intensity of mouse organs: Kidney (female BALB/C mice [2]; [6]): 0
Average radiation intensity of mouse organs: Liver (female BALB/C mice [2]; [6]): 11424
Average radiation intensity of mouse organs: Lung (female BALB/C mice [2]; [6]): 0
Average radiation intensity of mouse organs: Lymph (female BALB/C mice [2]; [6]): 0
Average radiation intensity of mouse organs: Spleen (female BALB/C mice [2]; [6]): 242444
Expression level of mRNA in the spleen, times that of SM-102 (female BALB/C mice [2]; spleen, 6 h, vs SM-102): 9.49 times
Expression level of mRNA in the spleen, times that of YK-501 (female BALB/C mice [2]; spleen, 6 h, vs YK-501): 17.04 times
Expression level of mRNA in the spleen, times that of YK-506 (female BALB/C mice [2]; spleen, 6 h, vs YK-506): 3.40 times
Cellular transfection efficiency, times that of HHMA (293T cells [3]; vs HHMA): 8.53 times
Cellular transfection efficiency, times that of I-1 (293T cells [3]; vs I-1): 42.56 times
Cellular transfection efficiency, times that of Lipofectamine 3000 (293T cells [3]; vs Lipofectamine 3000): 10.24 times
Cellular transfection efficiency, times that of MC3 (293T cells [3]; vs MC3): 90.92 times
Cellular transfection efficiency, times that of SM-102 (293T cells [3]; vs SM-102): 6.04 times
Cellular transfection efficiency, times that of YK-501 (293T cells [3]; vs YK-501): 186.59 times
Cellular transfection efficiency, times that of YK-506 (293T cells [3]; vs YK-506): 13.19 times
Cellular transfection efficiency, times that of YK-903 (293T cells [3]; vs YK-903): 345.06 times
Cellular transfection efficiency, times that of YK-906 (293T cells [3]; vs YK-906): 313 times and 313.25 times
Cellular transfection efficiency, times that of compound 7 (293T cells [3]; vs compound 7): 33.51 times
